Measurements published in US20220226299A1 (NIPPON CHEMIPHAR CO., LTD., priority 2019, published 2022).

Target: T1, human Cav3.2 channels (Homo sapiens, UniProt O95180)
T1 construct: human Cav3.2 channel ORF (Open Reading Frame) gene; expressed in transfected cells; host or cells: HEK293 cells (ATCC No. CRL-1573), pcDNA3.1(+) plasmid
Assay: T-type calcium blocking action: intracellular calcium (Fluo-4 AM fluorescence) in HEK293 cells steadily expressing human Cav3.2 channels
Format: cell-based
Conditions: HEK293 cells expressing human Cav3.2; KCl-stimulated calcium influx, Fluo-4 fluorescence; Tables 1 to 3
Outline: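 Fluo-4 AM-loaded stable HEK293 cells were preincubated 15 min at RT with compound (0.1% DMSO final) in choline-based buffer (pH 7.3). Gramicidin was added, then KCl-induced calcium influx was read at 485/510 nm for 10 s. Percent block came from peak rise over baseline, and IC50 from log-concentration plots.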

T1 sequence (O95180 whole entry): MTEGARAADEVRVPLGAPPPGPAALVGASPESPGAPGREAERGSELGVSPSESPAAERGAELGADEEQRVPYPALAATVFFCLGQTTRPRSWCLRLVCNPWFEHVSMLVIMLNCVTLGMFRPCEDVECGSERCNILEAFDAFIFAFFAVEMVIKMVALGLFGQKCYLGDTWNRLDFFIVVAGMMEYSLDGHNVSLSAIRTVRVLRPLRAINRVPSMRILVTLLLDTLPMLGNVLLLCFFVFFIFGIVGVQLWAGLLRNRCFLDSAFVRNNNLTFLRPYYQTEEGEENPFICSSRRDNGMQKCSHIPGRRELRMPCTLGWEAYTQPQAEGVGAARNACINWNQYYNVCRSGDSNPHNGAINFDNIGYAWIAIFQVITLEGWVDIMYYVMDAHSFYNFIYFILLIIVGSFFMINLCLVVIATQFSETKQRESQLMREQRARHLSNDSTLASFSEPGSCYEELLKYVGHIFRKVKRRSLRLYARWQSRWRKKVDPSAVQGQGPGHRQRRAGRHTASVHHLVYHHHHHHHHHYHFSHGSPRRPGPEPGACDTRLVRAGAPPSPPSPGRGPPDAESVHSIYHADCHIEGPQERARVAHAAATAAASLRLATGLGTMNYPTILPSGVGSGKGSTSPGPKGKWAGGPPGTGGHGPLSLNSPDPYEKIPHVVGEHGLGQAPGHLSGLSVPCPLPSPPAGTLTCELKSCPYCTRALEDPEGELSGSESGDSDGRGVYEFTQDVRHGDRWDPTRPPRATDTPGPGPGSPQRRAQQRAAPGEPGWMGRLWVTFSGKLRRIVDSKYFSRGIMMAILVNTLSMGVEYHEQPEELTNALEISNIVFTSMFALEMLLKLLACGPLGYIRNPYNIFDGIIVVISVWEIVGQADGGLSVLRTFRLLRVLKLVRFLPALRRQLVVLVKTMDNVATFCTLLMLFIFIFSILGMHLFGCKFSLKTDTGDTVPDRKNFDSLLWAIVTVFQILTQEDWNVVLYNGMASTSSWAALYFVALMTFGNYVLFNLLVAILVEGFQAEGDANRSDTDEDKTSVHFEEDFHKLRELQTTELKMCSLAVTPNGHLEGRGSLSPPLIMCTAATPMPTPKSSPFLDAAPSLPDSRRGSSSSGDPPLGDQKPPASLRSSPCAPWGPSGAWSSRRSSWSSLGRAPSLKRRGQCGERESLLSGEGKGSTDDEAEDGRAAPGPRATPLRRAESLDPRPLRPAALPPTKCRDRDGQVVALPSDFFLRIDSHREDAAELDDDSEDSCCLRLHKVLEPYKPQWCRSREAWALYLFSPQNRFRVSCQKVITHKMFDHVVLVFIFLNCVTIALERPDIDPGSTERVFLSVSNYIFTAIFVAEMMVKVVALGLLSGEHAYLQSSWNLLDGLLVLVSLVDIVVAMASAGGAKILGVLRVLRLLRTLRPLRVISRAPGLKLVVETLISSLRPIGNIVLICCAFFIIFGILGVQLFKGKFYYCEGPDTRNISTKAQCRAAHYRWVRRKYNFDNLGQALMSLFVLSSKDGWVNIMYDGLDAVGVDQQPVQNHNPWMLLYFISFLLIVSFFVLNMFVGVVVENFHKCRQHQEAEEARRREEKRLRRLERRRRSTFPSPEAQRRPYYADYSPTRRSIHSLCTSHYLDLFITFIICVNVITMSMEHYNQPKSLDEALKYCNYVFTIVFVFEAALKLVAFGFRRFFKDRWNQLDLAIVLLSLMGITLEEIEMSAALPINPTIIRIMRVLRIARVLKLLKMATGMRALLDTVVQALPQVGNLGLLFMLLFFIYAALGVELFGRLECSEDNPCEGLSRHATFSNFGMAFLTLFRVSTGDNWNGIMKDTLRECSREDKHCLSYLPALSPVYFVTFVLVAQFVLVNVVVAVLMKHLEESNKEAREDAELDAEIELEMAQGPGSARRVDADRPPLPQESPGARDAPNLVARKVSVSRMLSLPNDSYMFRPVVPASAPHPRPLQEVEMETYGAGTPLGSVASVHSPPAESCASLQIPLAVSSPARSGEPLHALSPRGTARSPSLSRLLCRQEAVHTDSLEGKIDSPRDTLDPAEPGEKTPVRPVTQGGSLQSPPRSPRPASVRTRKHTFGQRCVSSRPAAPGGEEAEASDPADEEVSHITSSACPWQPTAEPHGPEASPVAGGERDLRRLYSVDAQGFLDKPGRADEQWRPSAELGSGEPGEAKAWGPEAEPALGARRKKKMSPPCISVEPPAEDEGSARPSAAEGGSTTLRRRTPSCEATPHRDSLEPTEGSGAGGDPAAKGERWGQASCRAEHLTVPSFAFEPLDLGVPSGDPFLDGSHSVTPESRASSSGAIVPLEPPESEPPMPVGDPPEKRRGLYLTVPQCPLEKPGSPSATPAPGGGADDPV

Compound | IC50
Cc1nc2cc(CC(=O)N[C@@H]3CCN(c4ccc(C(F)(F)F)nc4)C3)ccc2o1 [Example 154, (R)-2-(2-methylbenzo[d]oxazol-5-yl)-N-(1-(6-(trifluoromethyl)pyridin-3-yl)pyrrolidin-3-yl)acetamide] | 1000 nM
O=C(Cc1ccc2ncsc2c1)N[C@@H]1CCN(c2cncc(C(F)(F)F)c2)C1 [Example 157, (R)-2-(benzo[d]thiazol-6-yl)-N-(1-(5-(trifluoromethyl)pyridin-3-yl)pyrrolidin-3-yl)acetamide] | 280 nM
O=C(Cc1ccc2ncsc2c1)N[C@@H]1CCN(c2ccc(C(F)(F)F)nc2)C1 [Example 158, (R)-2-(benzo[d]thiazol-6-yl)-N-(1-(6-(trifluoromethyl)pyridin-3-yl)pyrrolidin-3-yl)acetamide] | 1100 nM
O=C(Cc1ccc2[nH]ncc2c1)N[C@@H]1CCN(c2cncc(C(F)(F)F)c2)C1 [Example 159, (R)-2-(1H-indazol-5-yl)-N-(1-(5-(trifluoromethyl)pyridin-3-yl)pyrrolidin-3-yl)acetamide] | 510 nM
O=C(Cc1ccc(C(F)(F)F)cc1)NC1(C(F)(F)F)CCN(c2cncc(C(F)(F)F)c2)C1 (centres unmarked) [Example 162, N-(3-(trifluoromethyl)-1-(5-(trifluoromethyl)pyridin-3-yl)pyrrolidin-3-yl)-2-(4-(trifluoromethyl)phenyl)acetamide] | 560 nM
O=C(Cc1ccc2[nH]nnc2c1)N[C@@H]1CCN(c2ccc(C(F)(F)F)nc2)C1 [Example 164, (R)-2-(1H-benzo[d][1,2,3]triazol-5-yl)-N-(1-(6-(trifluoromethyl)pyridin-3-yl)pyrrolidin-3-yl)acetamide] | 2900 nM
Cn1nnc2cc(CC(=O)N[C@@H]3CCN(c4cncc(C(F)(F)F)c4)C3)ccc21 [Example 167, (R)-2-(1-methyl-1H-benzo[d][1,2,3]triazol-5-yl)-N-(1-(5-(trifluoromethyl)pyridin-3-yl)pyrrolidin-3-yl)acetamide] | 160 nM
O=C(Cc1ccc(C2CC2)cc1)NC1CN(c2ccc(F)c(C(F)(F)F)c2)C1 [Example 170, 2-(4-cyclopropylphenyl)-N-(1-(4-fluoro-3-(trifluoromethyl)phenyl)azetidin-3-yl)acetamide] | 880 nM
O=C(Cc1ccc(C2CC2)cc1)N[C@@H]1CCN(c2nc3ccc(F)cc3s2)C1 [Example 172, (R)-2-(4-cyclopropylphenyl)-N-(1-(6-fluorobenzo[d]thiazol-2-yl)pyrrolidin-3-yl)acetamide] | 550 nM
O=C(Cc1ccc(C2CC2)cc1)N[C@@H]1CCN(c2ncc(Br)s2)C1 [Example 173, (R)—N-(1-(5-bromothiazol-2-yl)pyrrolidin-3-yl)-2-(4-cyclopropylphenyl)acetamide] | 1100 nM
O=C(Cc1ccc(C2CC2)cc1)N[C@@H]1CCN(c2ccc(F)c(C(F)(F)F)c2)C1 [Example 174, (R)-2-(4-cyclopropylphenyl)-N-(1-(4-fluoro-3-(trifluoromethyl)phenyl)pyrrolidin-3-yl)acetamide] | 200 nM
COc1cccc(N2CC[C@@H](NC(=O)Cc3ccc(C4CC4)cc3)C2)c1 [Example 175, (R)-2-(4-cyclopropylphenyl)-N-(1-(3-methoxyphenyl)pyrrolidin-3-yl)acetamide] | 490 nM
O=C(Cc1ccc(C2CC2)cc1)N[C@@H]1CCN(c2cccc(O)c2)C1 [Example 178, (R)-2-(4-cyclopropylphenyl)-N-(1-(3-hydroxyphenyl)pyrrolidin-3-yl)acetamide] | 590 nM
O=C(Cc1ccc(C2CC2)cc1)N[C@@H]1CCN(c2cc(C(F)(F)F)ccn2)C1 [Example 182, (R)-2-(4-cyclopropylphenyl)-N-(1-(4-(trifluoromethyl)pyridin-2-yl)pyrrolidin-3-yl)acetamide] | 720 nM
CC(C(=O)N[C@@H]1CCN(c2ccc(C(F)(F)F)nc2)C1)c1ccc(C(F)(F)F)cc1 (stereo partly drawn) [Example 185, 2-(4-(Trifluoromethyl)phenyl)-N—((R)-1-(6-(trifluoromethyl)pyridin-3-yl)pyrrolidin-3-yl)propanamide] | 1400 nM

More lines, in order of falling IC50, values ahead:

IC50 | Compound
6400 nM | O=C(Cc1ccc2[nH]ncc2c1)N[C@@H]1CCN(c2ccc(C(F)(F)F)nc2)C1 [Example 160, (R)-2-(1H-indazol-5-yl)-N-(1-(6-(trifluoromethyl)pyridin-3-yl)pyrrolidin-3-yl)acetamide]
3000 nM | O=C(Cc1ccc(C(F)(F)F)cc1)N[C@@H]1CCN(c2ccc(F)c(C(F)(F)F)c2)C1 [Example 184, (R)—N-(1-(4-fluoro-3-(trifluoromethyl)phenyl)pyrrolidin-3-yl)-2-(4-(trifluoromethyl)phenyl)acetamide]
2100 nM | COc1cc(OC)nc(N2CC[C@@H](NC(=O)Cc3ccc(C4CC4)cc3)C2)n1 [Example 180, (R)-2-(4-cyclopropylphenyl)-N-(1-(4,6-dimethoxypyrimidin-2-yl)pyrrolidin-3-yl)acetamide]
1400 nM | O=C(Cc1ccc2[nH]nnc2c1)N[C@@H]1CCN(c2cncc(C(F)(F)F)c2)C1 [Example 163, (R)-2-(1H-benzo[d][1,2,3]triazol-5-yl)-N-(1-(5-(trifluoromethyl)pyridin-3-yl)pyrrolidin-3-yl)acetamide]
1300 nM | O=C(Cc1ccc(N2C[C@@H]3CC[C@H]2CO3)cc1)N[C@@H]1CCN(c2ccc(C(F)(F)F)nc2)C1 [Example 156, 2-(4-((1S,4S)-2-oxa-5-azabicyclo[2.2.2]octan-5-yl)phenyl)-N—((R)-1-(6-(trifluoromethyl)pyridin-3-yl)pyrrolidin-3-yl)acetamide]
510 nM | O=C(Cc1ccc2cc[nH]c2c1)N[C@@H]1CCN(c2nc(C(F)(F)F)cs2)C1 [Example 187, (R)-2-(1H-indol-6-yl)-N-(1-(4-(trifluoromethyl)thiazol-2-yl)pyrrolidin-3-yl)acetamide]
300 nM | CCOC(=O)C(C)(C)Oc1cccc(N2CC[C@@H](NC(=O)Cc3ccc(C4CC4)cc3)C2)c1 [Example 177, Ethyl (R)-2-(3-(3-(2-(4-cyclopropylphenyl)acetamido)pyrrolidin-1-yl)phenoxy)-2-methylpropanoate]
260 nM | O=C(Cc1ccc(C2CC2)cc1)NC1(C(F)(F)F)CCN(c2cncc(C(F)(F)F)c2)C1 (centres unmarked) [Example 161, 2-(4-cyclopropylphenyl)-N-(3-(trifluoromethyl)-1-(5-(trifluoromethyl)pyridin-3-yl)pyrrolidin-3-yl)acetamide]
240 nM | O=C(Cc1ccc(C2CC2)cc1)N[C@@H]1CCN(c2cccc(C(F)(F)F)n2)C1 [Example 179, (R)-2-(4-cyclopropylphenyl)-N-(1-(6-(trifluoromethyl)pyridin-2-yl)pyrrolidin-3-yl)acetamide]
200 nM | O=C(Cc1ccc(C(F)(F)F)cc1)N[C@@H]1CCN(c2ccc(C(F)(F)F)nc2)C1 [Example 183, (R)-2-(4-(trifluoromethyl)phenyl)-N-(1-(6-(trifluoromethyl)pyridin-3-yl)pyrrolidin-3-yl)acetamide]
170 nM | Cn1nnc2cc(CC(=O)N[C@@H]3CCN(c4ccc(C(F)(F)F)nc4)C3)ccc21 [Example 168, (R)-2-(1-methyl-1H-benzo[d][1,2,3]triazol-5-yl)-N-(1-(6-(trifluoromethyl)pyridin-3-yl)pyrrolidin-3-yl)acetamide]
110 nM | O=C(Cc1ccc(Br)cc1)N[C@@H]1CCN(c2cncc(C(F)(F)F)c2)C1 [Example 171, (R)-2-(4-bromophenyl)-N-(1-(5-(trifluoromethyl)pyridin-3-yl)pyrrolidin-3-yl)acetamide]
75 nM | O=C(Cc1ccc(N2C[C@@H]3CC[C@H]2CO3)cc1)N[C@@H]1CCN(c2cncc(C(F)(F)F)c2)C1 [Example 155, 2-(4-((1S,4S)-2-oxa-5-azabicyclo[2.2.2]octan-5-yl)phenyl)-N—((R)-1-(5-(trifluoromethyl)pyridin-3-yl)pyrrolidin-3-yl)acetamide]
25 nM | O=C(Cc1ccc(N2CCOCC2)cc1)N[C@@H]1CCN(c2cncc(C(F)(F)F)c2)C1 [Example 181, (R)-2-(4-morpholinophenyl)-N-(1-(5-(trifluoromethyl)pyridin-3-yl)pyrrolidin-3-yl)acetamide]
22 nM | Cn1ncc2cc(CC(=O)N[C@@H]3CCN(c4ccc(C(F)(F)F)nc4)C3)ccc21 [Example 144, (R)-2-(1-methyl-1H-indazol-5-yl)-N-(1-(6-(trifluoromethyl)pyridin-3-yl)pyrrolidin-3-yl)acetamide]
7.3 nM | O=C(Cc1ccc(N2CCC(F)(F)C2)cc1)N[C@@H]1CCN(c2cncc(C(F)(F)F)c2)C1 [Example 176, (R)-2-(4-(3,3-difluoropyrrolidin-1-yl)phenyl)-N-(1-(5-(trifluoromethyl)pyridin-3-yl)pyrrolidin-3-yl)acetamide]

Target: T2, Cav3.1 channel (Homo sapiens, UniProt O43497)
T2 construct: replaced with a Cav3.1 channel ORF gene; expressed in transfected cells
T2 sequence (O43497 whole entry): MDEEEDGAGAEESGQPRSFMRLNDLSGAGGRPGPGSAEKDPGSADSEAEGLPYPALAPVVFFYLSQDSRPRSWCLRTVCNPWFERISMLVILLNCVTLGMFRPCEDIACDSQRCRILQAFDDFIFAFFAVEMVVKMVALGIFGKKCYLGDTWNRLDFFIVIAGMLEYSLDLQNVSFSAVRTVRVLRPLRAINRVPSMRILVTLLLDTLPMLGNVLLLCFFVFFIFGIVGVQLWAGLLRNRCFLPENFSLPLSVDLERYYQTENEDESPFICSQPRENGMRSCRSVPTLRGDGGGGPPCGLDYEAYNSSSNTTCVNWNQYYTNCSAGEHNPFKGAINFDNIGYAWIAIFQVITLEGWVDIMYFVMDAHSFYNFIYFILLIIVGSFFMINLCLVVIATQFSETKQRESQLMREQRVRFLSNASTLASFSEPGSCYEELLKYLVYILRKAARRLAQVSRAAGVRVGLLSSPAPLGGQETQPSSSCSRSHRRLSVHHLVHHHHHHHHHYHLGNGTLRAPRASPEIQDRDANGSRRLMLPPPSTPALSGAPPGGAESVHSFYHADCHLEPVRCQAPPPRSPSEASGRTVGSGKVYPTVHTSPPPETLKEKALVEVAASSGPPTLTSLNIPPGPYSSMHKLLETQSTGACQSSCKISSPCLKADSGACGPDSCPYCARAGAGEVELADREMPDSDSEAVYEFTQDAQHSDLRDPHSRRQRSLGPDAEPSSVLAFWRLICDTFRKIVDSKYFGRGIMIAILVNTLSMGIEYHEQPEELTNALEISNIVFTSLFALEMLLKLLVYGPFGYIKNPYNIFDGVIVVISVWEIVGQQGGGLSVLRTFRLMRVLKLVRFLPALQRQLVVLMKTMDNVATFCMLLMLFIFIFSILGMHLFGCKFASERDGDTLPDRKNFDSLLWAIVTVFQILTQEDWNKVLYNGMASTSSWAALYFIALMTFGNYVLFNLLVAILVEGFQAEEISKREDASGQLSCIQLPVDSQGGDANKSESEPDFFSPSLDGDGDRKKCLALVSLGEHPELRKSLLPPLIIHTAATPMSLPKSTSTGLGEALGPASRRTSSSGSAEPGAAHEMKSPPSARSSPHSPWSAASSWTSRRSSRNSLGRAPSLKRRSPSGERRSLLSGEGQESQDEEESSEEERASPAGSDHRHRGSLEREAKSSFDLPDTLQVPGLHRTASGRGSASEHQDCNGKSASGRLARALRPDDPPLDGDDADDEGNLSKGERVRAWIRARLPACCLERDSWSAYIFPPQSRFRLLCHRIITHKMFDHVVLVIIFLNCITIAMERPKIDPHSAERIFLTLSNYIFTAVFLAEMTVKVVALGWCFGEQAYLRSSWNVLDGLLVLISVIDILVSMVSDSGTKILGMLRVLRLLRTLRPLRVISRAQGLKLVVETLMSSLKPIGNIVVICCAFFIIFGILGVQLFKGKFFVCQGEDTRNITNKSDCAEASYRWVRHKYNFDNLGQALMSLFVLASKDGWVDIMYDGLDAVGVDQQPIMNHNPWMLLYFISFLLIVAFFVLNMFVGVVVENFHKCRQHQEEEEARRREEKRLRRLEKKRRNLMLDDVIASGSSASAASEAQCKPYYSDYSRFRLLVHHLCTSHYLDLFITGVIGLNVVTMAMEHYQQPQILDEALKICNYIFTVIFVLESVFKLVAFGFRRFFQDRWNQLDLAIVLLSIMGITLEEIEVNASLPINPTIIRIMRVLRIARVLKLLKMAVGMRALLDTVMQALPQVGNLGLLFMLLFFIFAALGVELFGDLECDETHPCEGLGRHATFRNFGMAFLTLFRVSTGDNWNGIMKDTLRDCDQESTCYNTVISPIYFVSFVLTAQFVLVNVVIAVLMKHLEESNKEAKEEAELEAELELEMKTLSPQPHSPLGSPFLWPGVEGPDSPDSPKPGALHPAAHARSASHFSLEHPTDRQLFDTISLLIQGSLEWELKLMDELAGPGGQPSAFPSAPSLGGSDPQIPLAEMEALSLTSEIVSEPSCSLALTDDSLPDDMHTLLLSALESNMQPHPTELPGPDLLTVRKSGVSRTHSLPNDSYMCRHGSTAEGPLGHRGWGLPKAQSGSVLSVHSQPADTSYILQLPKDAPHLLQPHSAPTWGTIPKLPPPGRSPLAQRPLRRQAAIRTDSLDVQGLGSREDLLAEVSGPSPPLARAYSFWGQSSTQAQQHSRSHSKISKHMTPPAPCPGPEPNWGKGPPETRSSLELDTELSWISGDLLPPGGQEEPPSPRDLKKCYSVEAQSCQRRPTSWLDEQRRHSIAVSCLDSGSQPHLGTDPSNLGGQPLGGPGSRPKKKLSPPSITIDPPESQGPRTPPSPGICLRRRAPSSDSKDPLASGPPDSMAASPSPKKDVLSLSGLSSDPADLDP
Assay: Cav3.1 channel blocking action, as the Cav3.2 test but with the Cav3.1 channel ORF gene and 1.0 mM CaCl2 in the buffers
Format: cell-based
Conditions: Cav3.1 channel ORF gene; CaCl2 1.0 mM in buffer A and buffer B

IC50 | Compound
470 nM | Cn1ncc2cc(CC(=O)N[C@@H]3CCN(c4ccc(C(F)(F)F)nc4)C3)ccc21 [Example 144, (R)-2-(1-methyl-1H-indazol-5-yl)-N-(1-(6-(trifluoromethyl)pyridin-3-yl)pyrrolidin-3-yl)acetamide]
